Results: patent US12077503B2, “Substituted cyclic amides and their use as herbicides” (FMC CORPORATION, priority 2015, dated 2024)

Legend:
Type in all cases: in vivo
Kochia (Kochia scoparia) [1] = assay: Test A preemergence; details: Bassia scoparia, pre-emergence, 240 h, 0 to 100 scale where 0 is no effect and 100 is complete control, read-out: Kochia plant response rating; for pest or weed control at 31 g/ha: 31 g ai/ha, Preemergence; for pest or weed control at 125 g/ha: 125 g ai/ha, preemergence, visual injury rating, approximately 10 d
Outline: (§1)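 Compounds were formulated in a non-phytotoxic solvent mixture with surfactant and applied as a preemergence directed soil spray after seeding, or sprayed postemergence over plants 2 to 10 cm tall at the one- to two-leaf stage. Evaluation after about 10 d compared treated with untreated controls, using a scale from 0 (no effect) to 100 (complete control).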

[2] = system: barnyardgrass (Echinochloa crus-galli); assay: Test A preemergence; details: Echinochloa crus-galli, pre-emergence, 240 h, 0 to 100 scale where 0 is no effect and 100 is complete control, read-out: Barnyardgrass plant response rating; for pest or weed control at 31 g/ha: 31 g ai/ha, Preemergence; for pest or weed control at 125 g/ha: 125 g ai/ha, preemergence, visual injury rating, approximately 10 d
Outline: as §1

[3] = system: giant foxtail (Setaria faberii); assay: Test A preemergence; details: Setaria faberi, pre-emergence, 240 h, 0 to 100 scale where 0 is no effect and 100 is complete control, read-out: Foxtail, Giant plant response rating; for pest or weed control at 31 g/ha: 31 g ai/ha, Preemergence; for pest or weed control at 125 g/ha: 125 g ai/ha, preemergence, visual injury rating, approximately 10 d
Outline: as §1

[4] = system: pigweed (Amaranthus retroflexus); assay: Test A preemergence; details: Amaranthus retroflexus, pre-emergence, 240 h, 0 to 100 scale where 0 is no effect and 100 is complete control, read-out: Pigweed plant response rating; for pest or weed control at 31 g/ha: 31 g ai/ha, Preemergence; for pest or weed control at 125 g/ha: 125 g ai/ha, preemergence, visual injury rating, approximately 10 d
[5] = system: ragweed (common ragweed, Ambrosia elatior); assay: Test A preemergence; details: Ambrosia artemisiifolia, pre-emergence, 240 h, 0 to 100 scale where 0 is no effect and 100 is complete control, read-out: Ragweed plant response rating; for pest or weed control at 31 g/ha: 31 g ai/ha, Preemergence; for pest or weed control at 125 g/ha: 125 g ai/ha, preemergence, visual injury rating, approximately 10 d
Outline: as §1

[6] = system: ryegrass, Italian (Italian ryegrass, Lolium multiflorum); assay: Test A preemergence; details: Lolium multiflorum, pre-emergence, 240 h, 0 to 100 scale where 0 is no effect and 100 is complete control, read-out: Ryegrass, Italian plant response rating; for pest or weed control at 31 g/ha: 31 g ai/ha, Preemergence; for pest or weed control at 125 g/ha: 125 g ai/ha, preemergence, visual injury rating, approximately 10 d
Outline: as §1

[7] = system: Galium (catchweed bedstraw, Galium aparine); assay: Test A postemergence; details: Galium, post-emergence, 240 h, Postemergence, read-out: Galium plant response rating (0 to 100 scale); for pest or weed control at 125 g/ha: 125 g ai/ha, visual rating about 10 d after treatment; for pest or weed control at 31 g/ha: 31 g ai/ha, 0 is no effect, 100 is complete control
Outline: as §1

Kochia (Kochia scoparia) [8] = assay: Test A postemergence; details: Bassia scoparia, post-emergence, 240 h, Postemergence, read-out: Kochia plant response rating (0 to 100 scale); for pest or weed control at 125 g/ha: 125 g ai/ha, visual rating about 10 d after treatment; for pest or weed control at 31 g/ha: 31 g ai/ha, 0 is no effect, 100 is complete control
Outline: as §1

[9] = system: barnyardgrass (Echinochloa crus-galli); assay: Test A postemergence; details: Echinochloa crus-galli, post-emergence, 240 h, Postemergence; for pest or weed control at 125 g/ha: 125 g ai/ha, visual rating about 10 d after treatment, read-out: Barnyardgrass plant response rating (0 to 100 scale, 0 no effect, 100 complete control); for pest or weed control at 31 g/ha: 31 g ai/ha, 0 is no effect, 100 is complete control, read-out: Barnyardgrass plant response rating (0 to 100 scale)
Outline: as §1

[10] = system: blackgrass (Alopecurus myosuroides); assay: Test A postemergence; details: Alopecurus myosuroides, post-emergence, 240 h, Postemergence, read-out: Blackgrass plant response rating (0 to 100 scale); for pest or weed control at 125 g/ha: 125 g ai/ha, visual rating about 10 d after treatment; for pest or weed control at 31 g/ha: 31 g ai/ha, 0 is no effect, 100 is complete control
Outline: as §1

corn (Zea mays) = assay: Test A postemergence; details: Zea mays, post-emergence, 240 h, Postemergence, read-out: Corn plant response rating (0 to 100 scale); for plant injury at 125 g/ha: 125 g ai/ha, visual rating about 10 d after treatment; for plant injury at 31 g/ha: 31 g ai/ha, 0 is no effect, 100 is complete control
Outline: as §1

[11] = system: giant foxtail (Setaria faberii); assay: Test A postemergence; details: Setaria faberi, post-emergence, 240 h, Postemergence, read-out: Foxtail, Giant plant response rating (0 to 100 scale); for pest or weed control at 125 g/ha: 125 g ai/ha, visual rating about 10 d after treatment; for pest or weed control at 31 g/ha: 31 g ai/ha, 0 is no effect, 100 is complete control
Outline: as §1

[12] = system: pigweed (Amaranthus retroflexus); assay: Test A postemergence; details: Amaranthus retroflexus, post-emergence, 240 h, Postemergence, read-out: Pigweed plant response rating (0 to 100 scale); for pest or weed control at 125 g/ha: 125 g ai/ha, visual rating about 10 d after treatment; for pest or weed control at 31 g/ha: 31 g ai/ha, 0 is no effect, 100 is complete control
Outline: as §1

[13] = system: ragweed (common ragweed, Ambrosia elatior); assay: Test A postemergence; details: Ambrosia artemisiifolia, post-emergence, 240 h, Postemergence, read-out: Ragweed plant response rating (0 to 100 scale); for pest or weed control at 125 g/ha: 125 g ai/ha, visual rating about 10 d after treatment; for pest or weed control at 31 g/ha: 31 g ai/ha, 0 is no effect, 100 is complete control
Outline: as §1

[14] = system: ryegrass, Italian (Italian ryegrass, Lolium multiflorum); assay: Test A postemergence; details: Lolium multiflorum, post-emergence, 240 h, Postemergence, read-out: Ryegrass, Italian plant response rating (0 to 100 scale); for pest or weed control at 125 g/ha: 125 g ai/ha, visual rating about 10 d after treatment; for pest or weed control at 31 g/ha: 31 g ai/ha, 0 is no effect, 100 is complete control
Outline: as §1

[15] = system: wheat (Triticum aestivum); assay: Test A postemergence; details: Triticum aestivum, post-emergence, 240 h, Postemergence, read-out: Wheat plant response rating (0 to 100 scale); for plant injury at 125 g/ha: 125 g ai/ha, visual rating about 10 d after treatment; for plant injury at 31 g/ha: 31 g ai/ha, 0 is no effect, 100 is complete control
Outline: as §1

[16] = system: barnyardgrass (Echinochloa crus-galli); assay: Test B flooded paddy test; details: Echinochloa crus-galli, 250 g ai/ha, Flood; 0 to 100 scale where 0 is no effect and 100 is complete control; read-out: Barnyardgrass plant response rating
Outline: (§2)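 2-leaf plants; pots flooded 3 cm over soil; cpd added to paddy water; depth held; greenhouse 13–15 d; visual rating vs controls, 0 = no effect, 100 = complete control.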

[17] = system: ducksalad (Heteranthera limosa); assay: Test B flooded paddy test; details: Heteranthera limosa, 250 g ai/ha, Flood; 0 to 100 scale where 0 is no effect and 100 is complete control; read-out: Ducksalad plant response rating
Outline: as §2

rice (Oryra sativa) = assay: Test B flooded paddy test; details: Oryza sativa, 250 g ai/ha, Flood; 0 to 100 scale where 0 is no effect and 100 is complete control; read-out: Rice plant response rating
Outline: as §2

[18] = system: sedge, umbrella (small-flower umbrella sedge, Cyperus difformis); assay: Test B flooded paddy test; details: Cyperus difformis, 250 g ai/ha, Flood; 0 to 100 scale where 0 is no effect and 100 is complete control; read-out: Sedge, Umbrella plant response rating
Outline: as §2

Structure (SMILES)	pest or weed control at 31 g/ha (Kochia (Kochia scoparia) [1]) [%]	pest or weed control at 125 g/ha (Kochia (Kochia scoparia) [1]) [%]	pest or weed control at 31 g/ha [2] [%]	pest or weed control at 125 g/ha [2] [%]	pest or weed control at 31 g/ha [3] [%]	pest or weed control at 125 g/ha [3] [%]	pest or weed control at 31 g/ha [4] [%]	pest or weed control at 125 g/ha [4] [%]	pest or weed control at 31 g/ha [5] [%]	pest or weed control at 125 g/ha [5] [%]	pest or weed control at 31 g/ha [6] [%]	pest or weed control at 125 g/ha [6] [%]	pest or weed control at 125 g/ha [7] [%]	pest or weed control at 31 g/ha [7] [%]	pest or weed control at 125 g/ha (Kochia (Kochia scoparia) [8]) [%]	pest or weed control at 31 g/ha (Kochia (Kochia scoparia) [8]) [%]	pest or weed control at 125 g/ha [9] [%]	pest or weed control at 31 g/ha [9] [%]	pest or weed control at 125 g/ha [10] [%]	pest or weed control at 31 g/ha [10] [%]	also measured
CN1C[C@H](c2ccc3c(c2)C(F)(F)C(F)(F)O3)[C@@H](C(=O)Nc2cccc(F)c2F)C1=O [Compound 1271]	30	40	90	90	80	90	0	50	0	20	70	90	60	60	40	20	60	40	30	0	plant injury at 125 g/ha (corn (Zea mays)): 40%; plant injury at 31 g/ha (corn (Zea mays)): 30%; pest or weed control at 125 g/ha [11]: 80%; pest or weed control at 31 g/ha [11]: 20%; pest or weed control at 125 g/ha [12]: 30%; pest or weed control at 31 g/ha [12]: 20%; pest or weed control at 125 g/ha [13]: 0%; pest or weed control at 31 g/ha [13]: 0%; pest or weed control at 125 g/ha [14]: 30%; pest or weed control at 31 g/ha [14]: 0%; plant injury at 125 g/ha [15]: 60%; plant injury at 31 g/ha [15]: 20%; pest or weed control at 250 g/ha [16]: 40%; pest or weed control at 250 g/ha [17]: 90%; pest or weed control at 250 g/ha (rice (Oryra sativa)): 0%; pest or weed control at 250 g/ha [18]: 0%
O=C1NC[C@H](c2cc(Cl)cc(Cl)c2)[C@H]1C(=O)Nc1cccc(F)c1F [Compound 1273]	0	50	60	80	80	90	0	20	0	0	0	40	50	40	60	0	60	50	20	0	plant injury at 125 g/ha (corn (Zea mays)): 60%; plant injury at 31 g/ha (corn (Zea mays)): 0%; pest or weed control at 125 g/ha [11]: 80%; pest or weed control at 31 g/ha [11]: 60%; pest or weed control at 125 g/ha [12]: 40%; pest or weed control at 31 g/ha [12]: 0%; pest or weed control at 125 g/ha [13]: 0%; pest or weed control at 31 g/ha [13]: 0%; pest or weed control at 125 g/ha [14]: 40%; pest or weed control at 31 g/ha [14]: 0%; plant injury at 125 g/ha [15]: 30%; plant injury at 31 g/ha [15]: 0%; pest or weed control at 250 g/ha [16]: 30%; pest or weed control at 250 g/ha [17]: 90%; pest or weed control at 250 g/ha (rice (Oryra sativa)): 0%; pest or weed control at 250 g/ha [18]: 0%
